Source: patent publication US20250122160A1, “PROTEIN TYROSINE PHOSPHATASE INHIBITORS AND METHODS OF USE THEREOF” (Calico Life Sciences LLC, priority 0001, published 2025)

Tests used:
[1] = molecular target: T1, His tagged PTPN2 (TC45) protein (Homo sapiens, UniProt P17706); assay: Mobility shift assay (MSA) to determine potency of PTPN2 inhibitors; format: biochemical; settings: 0.5 nM enzyme, 2 μM substrate
T1 construct: made in house
T1 sequence (P17706 with tags, fused parts or gaps isoform P17706-2): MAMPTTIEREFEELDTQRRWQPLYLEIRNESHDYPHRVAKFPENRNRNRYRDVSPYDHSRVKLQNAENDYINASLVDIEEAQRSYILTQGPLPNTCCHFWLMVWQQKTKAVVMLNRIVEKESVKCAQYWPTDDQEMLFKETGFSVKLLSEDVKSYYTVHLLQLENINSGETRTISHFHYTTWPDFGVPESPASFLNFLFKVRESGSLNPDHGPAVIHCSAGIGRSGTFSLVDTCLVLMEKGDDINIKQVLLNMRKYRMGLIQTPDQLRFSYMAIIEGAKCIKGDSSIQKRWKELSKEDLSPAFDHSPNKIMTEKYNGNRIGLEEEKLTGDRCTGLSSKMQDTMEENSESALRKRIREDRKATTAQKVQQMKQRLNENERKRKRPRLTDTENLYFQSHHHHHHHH
In short: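 His-tagged human PTPN2 (TC45), 0.5 nM, preincubated 10 min at room temperature with compound (12-point, 1:3 dilutions) in HEPES pH 7.5 buffer with EGTA, EDTA, Tween 20 and DTT. Then 2 μM OG488-labelled phospho-insulin-receptor peptide was added for 10 min and quenched. % conversion was read by mobility shift, and IC50 came from % inhibition.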

[2] = molecular target: T2, His tagged full-length PTPN1 protein (Homo sapiens, UniProt P18031); assay: Mobility shift assay (MSA) to determine potency of PTPN1 inhibitors; format: biochemical; settings: 0.5 nM enzyme, 2 μM substrate
T2 construct: made in house
T2 sequence (P18031 with tags, fused parts or gaps): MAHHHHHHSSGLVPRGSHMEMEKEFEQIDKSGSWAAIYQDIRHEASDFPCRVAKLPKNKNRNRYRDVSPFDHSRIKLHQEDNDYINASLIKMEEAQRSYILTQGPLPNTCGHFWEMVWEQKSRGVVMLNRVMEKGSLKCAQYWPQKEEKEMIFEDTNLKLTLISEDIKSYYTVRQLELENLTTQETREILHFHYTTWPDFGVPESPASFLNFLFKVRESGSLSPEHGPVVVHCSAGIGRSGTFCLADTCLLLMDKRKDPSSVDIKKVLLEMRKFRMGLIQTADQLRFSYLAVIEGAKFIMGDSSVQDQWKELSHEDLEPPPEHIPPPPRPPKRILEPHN
In short: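 Readout is microfluidic mobility shift (ex 488/em 530 nm) of a 2 μM OG488-labelled pTyr insulin-receptor peptide after a 10 min room-temperature reaction, following 10 min enzyme–compound preincubation. Enzyme: 0.5 nM full-length His-tagged PTPN1 in HEPES pH 7.5 buffer. IC50 fitted from % inhibition at 12 concentrations (1:3 steps).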

Row | Structure (SMILES) | IC50 [1] | IC50 [2]
1 | NCC1(O)CCc2cc(O)c(N3CC(=O)NS3(=O)=O)c(F)c2C1 (stereo not shown) [Compound 337, 5-[7-(aminomethyl)-1-fluoro-3,7-dihydroxy-5,6,7,8-tetrahydronaphthalen-2-yl]-1λ^6,2,5-thiadiazolidine-1,1,3-trione] | 10 to 100 nM | 10 to 100 nM
2 | O=C1CN(c2c(O)cc3c(c2F)C[C@H](NCCC2(CO)CCC2)CC3)S(=O)(=O)N1 [Compound 338, 5-[(7R)-1-fluoro-3-hydroxy-7-({2-[1-(hydroxymethyl)cyclobutyl]ethyl}amino)-5,6,7,8-tetrahydronaphthalen-2-yl]-1λ^6,2,5-thiadiazolidine-1,1,3-trione] | < 1 nM | 1 to 10 nM
3 | CC(C)CNCC1(O)CCc2cc(O)c(N3CC(=O)NS3(=O)=O)c(F)c2C1 (stereo not shown) [Compound 339, 5-(1-fluoro-3,7-dihydroxy-7-{[(2-methylpropyl)amino]methyl}-5,6,7,8-tetrahydronaphthalen-2-yl)-1λ^6,2,5-thiadiazolidine-1,1,3-trione] | 10 to 100 nM | 10 to 100 nM
4 | [2H]C1([2H])Cc2cc(O)c(N3CC(=O)NS3(=O)=O)c(F)c2C([2H])([2H])C1([2H])NCCC(C)C (stereo not shown) [Compound 340, 5-{1-fluoro-3-hydroxy-7-[(3-methylbutyl)amino](6,6,7,8,8-^2H5)-5,6,7,8-tetrahydronaphthalen-2-yl}-1λ^6,2,5-thiadiazolidine-1,1,3-trione] | < 1 nM | 1 to 10 nM
5 | CC(C)(C)OC(=O)N[C@@H]1CCc2cc(O)c(N3CC(=O)NS3(=O)=O)c(F)c2C1 [Compound 341, tert-butyl [(2R)-8-fluoro-6-hydroxy-7-(1,1,4-trioxo-1λ^6,2,5-thiadiazolidin-2-yl)-1,2,3,4-tetrahydronaphthalen-2-yl]carbamate] | 10 to 100 nM | 10 to 100 nM
6 | CC1(CN[C@@H]2CCc3cc(O)c(N4CC(=O)NS4(=O)=O)c(F)c3C2)COC1 [Compound 344, 5-[(7R)-1-fluoro-3-hydroxy-7-{[(3-methyloxetan-3-yl)methyl]amino}-5,6,7,8-tetrahydronaphthalen-2-yl]-1λ^6,2,5-thiadiazolidine-1,1,3-trione] | 1 to 10 nM | 10 to 100 nM
7 | Cn1cccc1CN[C@@H]1CCc2cc(O)c(N3CC(=O)NS3(=O)=O)c(F)c2C1 [Compound 345, 5-[(7R)-1-fluoro-3-hydroxy-7-{[(1-methyl-1H-pyrrol-2-yl)methyl]amino}-5,6,7,8-tetrahydronaphthalen-2-yl]-1λ^6,2,5-thiadiazolidine-1,1,3-trione] | 10 to 100 nM | 10 to 100 nM
8 | Cn1ccc(CN[C@@H]2CCc3cc(O)c(N4CC(=O)NS4(=O)=O)c(F)c3C2)c1 [Compound 346, 5-[(7R)-1-fluoro-3-hydroxy-7-{[(1-methyl-1H-pyrrol-3-yl)methyl]amino}-5,6,7,8-tetrahydronaphthalen-2-yl]-1λ^6,2,5-thiadiazolidine-1,1,3-trione] | 1 to 10 nM | 10 to 100 nM
9 | O=C1CN(c2c(O)cc3c(c2F)C[C@H](NCc2cccnc2)CC3)S(=O)(=O)N1 [Compound 347, 5-[(7R)-1-fluoro-3-hydroxy-7-{[(pyridin-3-yl)methyl]amino}-5,6,7,8-tetrahydronaphthalen-2-yl]-1λ^6,2,5-thiadiazolidine-1,1,3-trione] | 10 to 100 nM | 10 to 100 nM
10 | CC(CN[C@@H]1CCc2cc(O)c(N3CC(=O)NS3(=O)=O)c(F)c2C1)C(F)(F)F (stereo partly drawn) [Compound 348, 5-{(7R)-1-fluoro-3-hydroxy-7-[(3,3,3-trifluoro-2-methylpropyl)amino]-5,6,7,8-tetrahydronaphthalen-2-yl}-1λ^6,2,5-thiadiazolidine-1,1,3-trione] | 1 to 10 nM | 10 to 100 nM
11 | O=C1CN(c2c(O)cc3c(c2F)C[C@H](NCc2cccnn2)CC3)S(=O)(=O)N1 [Compound 349, 5-[(7R)-1-fluoro-3-hydroxy-7-{[(pyridazin-3-yl)methyl]amino}-5,6,7,8-tetrahydronaphthalen-2-yl]-1λ^6,2,5-thiadiazolidine-1,1,3-trione] | 10 to 100 nM | 10 to 100 nM
12 | O=C1CN(c2c(O)cc3c(c2F)C[C@H](NCC2CCCCO2)CC3)S(=O)(=O)N1 (stereo partly drawn) [Compound 350, 5-[(7R)-1-fluoro-3-hydroxy-7-{[(oxan-2-yl)methyl]amino}-5,6,7,8-tetrahydronaphthalen-2-yl]-1λ^6,2,5-thiadiazolidine-1,1,3-trione] | 1 to 10 nM | 10 to 100 nM
13 | Cc1cc(CN[C@@H]2CCc3cc(O)c(N4CC(=O)NS4(=O)=O)c(F)c3C2)no1 [Compound 351, 5-[(7R)-1-fluoro-3-hydroxy-7-{[(5-methyl-1,2-oxazol-3-yl)methyl]amino}-5,6,7,8-tetrahydronaphthalen-2-yl]-1λ^6,2,5-thiadiazolidine-1,1,3-trione] | 10 to 100 nM | 10 to 100 nM
14 | O=C1CN(c2c(O)cc3c(c2F)C[C@H](NCC2CCCOC2)CC3)S(=O)(=O)N1 (stereo partly drawn) [Compound 352, 5-[(7R)-1-fluoro-3-hydroxy-7-{[(oxan-3-yl)methyl]amino}-5,6,7,8-tetrahydronaphthalen-2-yl]-1λ^6,2,5-thiadiazolidine-1,1,3-trione] | 1 to 10 nM | 1 to 10 nM
15 | N#CC1CC1CN[C@@H]1CCc2cc(O)c(N3CC(=O)NS3(=O)=O)c(F)c2C1 (stereo partly drawn) [Compound 353, 2-({[(2R)-8-fluoro-6-hydroxy-7-(1,1,4-trioxo-1λ^6,2,5-thiadiazolidin-2-yl)-1,2,3,4-tetrahydronaphthalen-2-yl]amino}methyl)cyclopropane-1-carbonitrile] | 1 to 10 nM | 10 to 100 nM
16 | CCOCCCN[C@@H]1CCc2cc(O)c(N3CC(=O)NS3(=O)=O)c(F)c2C1 [Compound 354, 5-{(7R)-7-[(3-ethoxypropyl)amino]-1-fluoro-3-hydroxy-5,6,7,8-tetrahydronaphthalen-2-yl}-1λ^6,2,5-thiadiazolidine-1,1,3-trione] | 1 to 10 nM | 10 to 100 nM
17 | O=C1CN(c2c(O)cc3c(c2F)C[C@H](NCC2(C(F)F)CC2)CC3)S(=O)(=O)N1 [Compound 355, 5-[(7R)-7-({[1-(difluoromethyl)cyclopropyl]methyl}amino)-1-fluoro-3-hydroxy-5,6,7,8-tetrahydronaphthalen-2-yl]-1λ^6,2,5-thiadiazolidine-1,1,3-trione] | 1 to 10 nM | 10 to 100 nM
18 | O=C1CN(c2c(O)cc3c(c2F)C[C@H](NCCC2CCOC2)CC3)S(=O)(=O)N1 (stereo partly drawn) [Compound 356, 5-[(7R)-1-fluoro-3-hydroxy-7-{[2-(oxolan-3-yl)ethyl]amino}-5,6,7,8-tetrahydronaphthalen-2-yl]-1λ^6,2,5-thiadiazolidine-1,1,3-trione] | < 1 nM | 1 to 10 nM
19 | Cn1cncc1CN[C@@H]1CCc2cc(O)c(N3CC(=O)NS3(=O)=O)c(F)c2C1 [Compound 357, 5-[(7R)-1-fluoro-3-hydroxy-7-{[(1-methyl-1H-imidazol-5-yl)methyl]amino}-5,6,7,8-tetrahydronaphthalen-2-yl]-1λ^6,2,5-thiadiazolidine-1,1,3-trione] | 10 to 100 nM | 10 to 100 nM
20 | CC(C)(CN[C@@H]1CCc2cc(O)c(N3CC(=O)NS3(=O)=O)c(F)c2C1)CN1CCCC1 [Compound 358, 5-[(7R)-7-{[2,2-dimethyl-3-(pyrrolidin-1-yl)propyl]amino}-1-fluoro-3-hydroxy-5,6,7,8-tetrahydronaphthalen-2-yl]-1λ^6,2,5-thiadiazolidine-1,1,3-trione] | 10 to 100 nM | 10 to 100 nM
21 | O=C1CN(c2c(O)cc3c(c2F)C[C@H](NCc2ccc(CO)o2)CC3)S(=O)(=O)N1 [Compound 359, 5-[(7R)-1-fluoro-3-hydroxy-7-({[5-(hydroxymethyl)furan-2-yl]methyl}amino)-5,6,7,8-tetrahydronaphthalen-2-yl]-1λ^6,2,5-thiadiazolidine-1,1,3-trione] | 10 to 100 nM | 10 to 100 nM
22 | COCCCCN[C@@H]1CCc2cc(O)c(N3CC(=O)NS3(=O)=O)c(F)c2C1 [Compound 360, 5-{(7R)-1-fluoro-3-hydroxy-7-[(4-methoxybutyl)amino]-5,6,7,8-tetrahydronaphthalen-2-yl}-1λ^6,2,5-thiadiazolidine-1,1,3-trione] | 1 to 10 nM | 10 to 100 nM
23 | O=C1CN(c2c(O)cc3c(c2F)C[C@H](NCC2CCOC2)CC3)S(=O)(=O)N1 (stereo partly drawn) [Compound 361, 5-[(7R)-1-fluoro-3-hydroxy-7-{[(oxolan-3-yl)methyl]amino}-5,6,7,8-tetrahydronaphthalen-2-yl]-1λ^6,2,5-thiadiazolidine-1,1,3-trione] | 1 to 10 nM | 10 to 100 nM
